From patent publication US20230392153A1, “SUMO Targeting Morpholinos as both Enhancers of Anti-Cancer Effects of Chemotherapeutic Treatments and Preventative Agents Against the Establishment of Chemoresistance” (Board of Regents, The University of Texas System, priority 2022, published 2023)
{OctaGua} = octa-guanidine dendrimer (vivo-morpholino)

Tested on: mature mRNA transcripts derived from the SUMO2 gene, S2V1 and S2V2
Experiment: qRT-PCR quantification of SUMO2 transcript variants (CNE100 ng) in A549 cells treated with vivo-morpholinos
Format: cell-based, human
Conditions: 4 μM, 24 hours
Method: Made to order vivo-morpholinos are readily available and can be procured from Gene Tools, LLC (Philomath, OR) based on specified embodiments of this disclosure, and reconstituted at a final concentration of 400 μM using RNase & DNase-free milli-Q water. The reconstituted vivo-morpholinos were kept in solution at room temperature. To test the vivo-morpholinos, A549 cells were seeded in 6 well plates at a density of 0.5×10^6 cells per well in a final volume of 3 mL per well. The day after cell seeding, the vivo-morpholinos were diluted down to a final concentration of 4 μM and a final volume of 2 mL using 1× Opti-MEM™ I (Thermo Fisher Scientific, Waltham, MA), the plating media was discarded using vacuum suction, and the diluted vivo-morpholinos were immediately added to the cells (2 mL per well). The cells were maintained in the presence of the vivo-morpholinos at 37° C. and 5% CO 2 for another 24 hours and subsequently the cells were collected and processed for RNA isolation. […] RNA quantification was performed using a NanoDrop™ One s Microvolume UV-Vis Spectrophotometer (Thermo Fisher Scientific). Upon quantification, the purified RNA was divided into 9 μL aliquots and stored at −80° C. until used for qRT-PCR. […]
CNE100 ng were calculated using the Cq values obtained in the qRT-PCR reactions indicated above and calibration curves generated using purified RNA produced in vitro corresponding to each of the segments targeted by the primer sets indicated above.
The primer sets used to quantify each of the SUMO2 mature mRNA transcripts are indicated below. […]
The experiments described above were performed four different times. […] In the three subsequent independent experiments, all samples were analyzed in triplicate and the averages were calculated. […]
Referring to FIG. 5, quantitative analysis of the SUMO2 transcript variants present in A549 cells under normal conditions as well as upon a 24 hour treatment with the vivo-morpholinos S2E3Acc and S2E3Don is presented. […]

Row | Substance | effect on the proportion of S2V1:S2V2 present in the cell | decrease in the CNE100 ng of S2V1 (versus normal conditions (untreated)) [fold]
1 | S2E3Acc: Vivo-morpholino, SEQ ID NO: 3, 5′ CCTCATTGACAATCCCTGAACGAGA 3′; targets SUMO2 exon 3 at the splicing acceptor site (CCUCAUUGACAAUCCCUGAACGAGA; all phosphorodiamidate morpholino (PMO), 3' {OctaGua}, T or U not given here) | significative changes | ~10
2 | S2E3Don: Vivo-morpholino, SEQ ID NO: 4, 5′ GAGATTTTTTTACCTGTGCAGGTGT 3′; targets SUMO2 exon 3 at the splicing donor site (antisense GAGAUUUUUUUACCUGUGCAGGUGU; all phosphorodiamidate morpholino (PMO), 3' {OctaGua}, T or U not given here) | significative changes | 
